The target of one assay is T1, TOP II (Homo sapiens, UniProt P11388).
T1 construct: purchased TopoGEN TG-2000H-1
Kind of assay: Topoisomerase II activity assay (TOP II-catalyzed relaxation of plasmid DNA). Type of assay: biochemical. The note with it: primary assay at 25 and/or 50 µM. As for the experimental part: We also performed TOP 11-catalyzed relaxation of plasmid DNA assays(Fig. 5-7) to evaluate if compounds could inhibit TOP II. […] The IC50 value of compounds 7, N7, N8, N14, N15, N18, and N19 were about 10, 10, 1, 10, 5, 1, and 1 µM, respectively (detect by TopoGEN TG2005H, TG-2000H-1).

Another assay concerns PC-3. Nature of the assay: MTT assay for cell cytotoxicity. The assay is classed as cell-based, human. The note with it: Homo sapiens, 72 h, at least three independent experiments, read-out: MTT assay (IC50 ± SD) PC-3. As for the experimental part:
(§1) All of synthesis compounds were evaluated cell cytotoxicity by using MTT colorimetric assay on PC-3 and DU-145 cell lines. DU-145 and PC-3 are human hormone-refractory (androgen-independent) prostatic cancer cell lines from American Type Culture Collection (HTB-81™, ATCC, Rockville, MD)^125 and Bioresource Collection and Research Center (60122, BCRC, Taiwan)^126, respectively. Two of the "classical" cell lines were cultivated in RPMI-1640 medium supplemented with 5% fetal bovine serum (v/v), 100 U/mL penicillin, and […] streptomycin. Approximately 2 x 10^3 cells were seeded into each well of a 96-well plate and incubated in 5% CO2 at 37 °C for 24 h. To evaluate the in vitro cytotoxicity, all the synthetic compounds were dissolved in DMSO, prepared immediately before the experiments and diluted into the complete medium before being added to each well of a 96-well plate. Each compound was then added to the culture medium for designated various concentrations (0.15, 0.5, 1.5, 5, 15 µM). After 72 h, an amount of 100 µL of MTT (1 mg/mL) was added to each well, and the samples were incubated at 37 °C for 4 h. After removing the MTT solution, 100 µL of DMSO was added to each well and incubated at 37 °C for another 20 mins. The absorbency at 560 nm was measured by using an ELISA reader.
(§2) Results are expressed as mean values of at least three independent experiments. The IC50 values of testing compounds were described in Table 1. Table1. Effects of 10-Chloro-12H-thiochromeno[2,3-c]quinolin -12-one derivatives on cytotoxicity by MTT assay.
For orientation: Formazan colour is commonly taken as a measure of viable cells.

The next assay has as its system DU-145. Kind of assay: MTT assay for cell cytotoxicity. The assay is classed as cell-based, human. As to conditions: Homo sapiens, 72 h, at least three independent experiments, read-out: MTT assay (IC50 ± SD) DU-145. Here is the method: as §1, §2
In the next assay the target is T2, TOP I (Homo sapiens, UniProt P11387).
T2 construct: purchased TopoGEN TG2005H
T2 sequence (P11387 1-765): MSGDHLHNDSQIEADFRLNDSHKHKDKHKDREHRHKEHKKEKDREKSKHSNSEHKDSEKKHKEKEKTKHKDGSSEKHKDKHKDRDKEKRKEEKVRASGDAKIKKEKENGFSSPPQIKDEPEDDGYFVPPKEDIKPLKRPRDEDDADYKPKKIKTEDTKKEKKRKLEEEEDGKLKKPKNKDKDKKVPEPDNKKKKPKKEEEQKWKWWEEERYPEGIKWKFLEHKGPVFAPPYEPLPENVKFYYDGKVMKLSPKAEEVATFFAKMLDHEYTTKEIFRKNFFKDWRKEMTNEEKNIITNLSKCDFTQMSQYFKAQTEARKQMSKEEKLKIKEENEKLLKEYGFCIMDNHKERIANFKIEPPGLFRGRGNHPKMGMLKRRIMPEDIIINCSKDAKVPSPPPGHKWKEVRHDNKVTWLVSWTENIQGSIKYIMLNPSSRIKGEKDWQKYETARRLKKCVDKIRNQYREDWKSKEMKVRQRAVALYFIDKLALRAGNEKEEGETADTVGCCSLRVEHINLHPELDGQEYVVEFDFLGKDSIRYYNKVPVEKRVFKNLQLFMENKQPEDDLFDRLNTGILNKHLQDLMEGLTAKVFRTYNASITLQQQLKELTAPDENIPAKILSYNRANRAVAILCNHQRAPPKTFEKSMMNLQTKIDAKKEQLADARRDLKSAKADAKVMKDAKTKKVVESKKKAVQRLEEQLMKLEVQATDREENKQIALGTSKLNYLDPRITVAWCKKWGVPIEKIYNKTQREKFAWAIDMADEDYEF
Nature of the assay: Topoisomerase I activity assay (DNA relaxation catalyzed by TOP I). Type of assay: biochemical. The note with it: primary assay at 25 and/or 50 µM. Here is the method:
According to the cell cytotoxicity, compounds 5, 7, 8, 16, 19, N2, N7, N8, N9, N14-N19, and N25 were also selected for primary TOP I and II activities assays at 25 and/or 50 µM (Fig. 2-4).

What is called IC50 is the concentration that gives 50% inhibition.

T1 sequence (P11388 whole entry): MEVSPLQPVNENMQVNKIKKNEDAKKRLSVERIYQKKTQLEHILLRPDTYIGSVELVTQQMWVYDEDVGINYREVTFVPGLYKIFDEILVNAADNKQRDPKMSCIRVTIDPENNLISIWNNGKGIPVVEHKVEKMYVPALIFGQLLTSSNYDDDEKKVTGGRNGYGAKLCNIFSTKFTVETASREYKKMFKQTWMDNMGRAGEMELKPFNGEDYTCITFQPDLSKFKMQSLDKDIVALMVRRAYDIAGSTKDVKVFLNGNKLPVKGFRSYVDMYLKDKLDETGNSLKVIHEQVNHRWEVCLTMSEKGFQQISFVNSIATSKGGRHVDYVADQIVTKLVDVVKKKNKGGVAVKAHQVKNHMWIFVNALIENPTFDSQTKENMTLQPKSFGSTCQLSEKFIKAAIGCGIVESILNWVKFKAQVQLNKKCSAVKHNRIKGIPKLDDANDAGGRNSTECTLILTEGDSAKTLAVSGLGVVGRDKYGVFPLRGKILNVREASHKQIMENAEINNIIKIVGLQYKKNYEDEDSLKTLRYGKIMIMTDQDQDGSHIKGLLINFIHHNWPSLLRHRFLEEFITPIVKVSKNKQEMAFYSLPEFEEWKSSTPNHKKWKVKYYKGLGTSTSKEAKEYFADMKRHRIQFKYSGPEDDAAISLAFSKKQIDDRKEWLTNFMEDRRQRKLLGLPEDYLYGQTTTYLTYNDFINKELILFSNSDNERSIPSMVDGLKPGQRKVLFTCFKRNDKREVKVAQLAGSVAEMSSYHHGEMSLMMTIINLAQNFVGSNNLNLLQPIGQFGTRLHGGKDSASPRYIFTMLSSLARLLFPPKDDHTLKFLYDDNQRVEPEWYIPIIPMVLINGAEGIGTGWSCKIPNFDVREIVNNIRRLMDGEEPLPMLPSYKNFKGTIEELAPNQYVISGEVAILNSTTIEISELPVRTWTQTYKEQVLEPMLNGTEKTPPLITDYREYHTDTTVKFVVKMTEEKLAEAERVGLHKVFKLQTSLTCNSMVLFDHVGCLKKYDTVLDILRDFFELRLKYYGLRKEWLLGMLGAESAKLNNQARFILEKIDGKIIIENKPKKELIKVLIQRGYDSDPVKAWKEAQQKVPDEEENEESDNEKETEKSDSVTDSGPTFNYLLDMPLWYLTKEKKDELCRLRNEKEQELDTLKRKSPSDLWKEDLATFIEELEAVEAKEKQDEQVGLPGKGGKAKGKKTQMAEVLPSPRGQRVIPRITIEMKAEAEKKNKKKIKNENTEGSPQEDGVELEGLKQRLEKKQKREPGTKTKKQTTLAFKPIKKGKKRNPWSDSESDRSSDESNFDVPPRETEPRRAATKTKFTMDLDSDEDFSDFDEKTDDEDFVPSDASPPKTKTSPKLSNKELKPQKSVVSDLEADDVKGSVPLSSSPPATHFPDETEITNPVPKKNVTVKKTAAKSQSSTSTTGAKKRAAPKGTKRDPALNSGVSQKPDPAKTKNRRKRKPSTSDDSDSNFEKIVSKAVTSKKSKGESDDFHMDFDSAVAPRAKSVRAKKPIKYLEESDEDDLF

Take `O=c1c2cc(Cl)ccc2sc2c(N3CCNCC3)nc3ccccc3c12` [Compound 7, 10-Chloro-6-(piperazin-1-yl)-12H-thiochromeno[2,3-c]quinolin-12-one]: at TOP II, the “inhibitory effects on TOP II compared with the positive agent VP-16” value is listed as “more potent inhibitory effects than the positive agent VP-16”. Besides, the values for the IC50 in the assay with PC-3 and in the assay with DU-145 were 2.84 ± 0.64 µM and 5.01 ± 1.68 µM, respectively. Also, the “inhibitory effects in TOP I activity assay compared with CPT” value (shortened to “inhibitory effects … compared with CPT”) against TOP I is on record as “more potent inhibitory effects than CPT”.
For `CN(C)CCNc1nc2ccccc2c2c(=O)c3cc(Cl)ccc3sc12` [Compound N7, 10-Chloro-6-((2-(dimethylamino)ethyl)amino)-12H-thiochrome no[2,3-c]quinolin-12-one] the same measures were “more potent inhibitory effects than the positive agent VP-16”, 2.25 ± 0.61 µM, 5.94 ± 3.45 µM and “more potent inhibitory effects than CPT”.
For the molecule `CCN(CC)CCNc1nc2ccccc2c2c(=O)c3cc(Cl)ccc3sc12` [Compound N8, 10-Chloro-6-((2-(diethylamino)ethyl)amino)-12H-thiochromen o[2,3-c]quinolin-12-one], the “inhibitory effects on TOP II compared with the positive agent VP-16” value against TOP II is “more potent inhibitory effects than the positive agent VP-16”. Also, the IC50 in the assay on PC-3 is 1.11 ± 0.69 µM; in the assay on DU-145, 1.73 ± 0.72 µM.
In the case of `NCCNc1nc2ccccc2c2c(=O)c3cc(Cl)ccc3sc12` [Compound N14, 6-((2-Aminoethyl)amino)-10-chloro-12H-thiochromeno[2,3-c]q uinolin-12-one], the “inhibitory effects on TOP II compared with the positive agent VP-16” value at TOP II is listed as “more potent inhibitory effects than the positive agent VP-16”. Moreover, the IC50 in the assay on PC-3 was found to be 1.64 ± 0.55 µM; in the assay with DU-145, 1.8 ± 0.4 µM. Besides, the “inhibitory effects … compared with CPT” value against TOP I was “more potent inhibitory effects than CPT”.
As to `O=c1c2cc(Cl)ccc2sc2c(NCCNCCO)nc3ccccc3c12` [Compound N15, 10-Chloro-6-((2-((2-hydroxyethyl)amino)ethyl)amino)-12H-thio chromen[2,3-c]quinolin-12-one], at TOP II, the “inhibitory effects on TOP II compared with the positive agent VP-16” value is reported as “more potent inhibitory effects than the positive agent VP-16”. For the same molecule, the IC50 in the assay on PC-3 was 3.44 ± 1.81 µM; in the assay with DU-145, 3.81 ± 1.88 µM. For the same molecule, the “inhibitory effects … compared with CPT” value on TOP I is “more potent inhibitory effects than CPT”.
With `CN(C)CCCNc1nc2ccccc2c2c(=O)c3cc(Cl)ccc3sc12` [Compound N17, 10-Chloro-6-((3-(dimethylamino)propyl)amino)-12H-thiochrom eno[2,3-c]quinolin-12-one], the IC50 with PC-3 was 2.27 ± 0.09 µM; in the assay on DU-145, 2.7 ± 0.16 µM. The “inhibitory effects … compared with CPT” value against TOP I was “more potent inhibitory effects than CPT”.
Regarding `CCN(CC)CCCNc1nc2ccccc2c2c(=O)c3cc(Cl)ccc3sc12` [Compound N18, 10-Chloro-6-((3-(diethylamino)propyl)amino)-12H-thiochrome no[2,3-c]quinolin-12-one], the “inhibitory effects on TOP II compared with the positive agent VP-16” value against TOP II is given as “more potent inhibitory effects than the positive agent VP-16”. In addition, the IC50 with PC-3 turned out to be 2.22 ± 0.21 µM; in the assay with DU-145, 3.53 ± 1.05 µM. Besides, the “inhibitory effects … compared with CPT” value against TOP I is “more potent inhibitory effects than CPT”.
Regarding `O=c1c2cc(Cl)ccc2sc2c(NCCCNCCO)nc3ccccc3c12` [Compound N19, 10-Chloro-6-((3-((2-hydroxyethyl)amino)propyl)amino)-12H-th iochromeno[2,3-c]quinolin-12-one], the “inhibitory effects on TOP II compared with the positive agent VP-16” value on TOP II is on record as “more potent inhibitory effects than the positive agent VP-16”. In addition, the IC50 amounted to 1.98 ± 0.72 µM in the assay on PC-3 and 1.5 ± 1.32 µM in the assay on DU-145.
On to `O=c1c2cc(Cl)ccc2sc2c(NCc3ccccc3)nc3ccccc3c12` [Compound N25, 6-(Benzylamino)-10-chloro-12H-thiochromeno[2,3-c]quinolin-12-tone], for which the IC50 in the assay with PC-3 was determined as 11.2 ± 1.55 µM; with DU-145 it was 13.5 ± 0.69 µM. In addition, on TOP I, the “inhibitory effects … compared with CPT” value was “more potent inhibitory effects than CPT”.

Values taken from patent EP3002287B1, “Thiochromeno[2,3-c]quinolin-12-one derivatives and their use as topoisomerase inhibitors” (National Defense Medical Center, priority 2014, dated 2016).
